Drawing on US8399462B2, “JNK modulators” (Roche Palo Alto LLC, priority 2006, dated 2013), this text covers melting point for 32 compounds.

A value given as a limit tells only on which side of the number the result lay.

Compound `CS(=O)(=O)N[C@H]1CC[C@H](Nc2nccc(-n3ccc4c(F)cccc43)n2)CC1` [Compound 134, N-{4-[4-(4-fluoro-indol-1-yl)-pyrimidin-2-ylamino]-cyclohexyl}-methane sulfonamide] gave a melting point of 248.7 to 249.4 °C.

In the case of `CC(O)c1cccc2c1ccn2-c1ccnc(N[C@H]2CC[C@H](NS(C)(=O)=O)CC2)n1` (some centres unmarked) [Compound 135, N-(4-{4-[4-(1-hydroxy-ethyl)-indol-1-yl]-pyrimidin-2-ylamino}-cyclohexyl)-methane-sulfonamide], the melting point was 244.5 to 245.3 °C. Turning to `CN(C)S(=O)(=O)N[C@H]1CC[C@H](Nc2nccc(-n3ncc4ccccc43)n2)CC1` [Compound 136, Dimethyl sulfonamide [4-(4-indazol-1-yl)-pyrimidin-2-ylamino]-cyclohexyl amine], the melting point was in the range of 238.5 to 239.7 °C. Then `CC(O)c1cccc2c1ccn2-c1ccnc(N[C@H]2CC[C@H](NS(=O)(=O)N(C)C)CC2)n1` (some centres unmarked) [Compound 137, N-(N′,N′-dimethylsulfonamido) N-{4-[4-(1-hydroxyethyl)-indol-1-yl-pyrimidin-2-yl-amino]-cyclohexyl} amine], with greater than 300 °C; and `CS(=O)(=O)CCOCc1cccc2c1ccn2-c1ccnc(N[C@H]2CC[C@H](O)CC2)n1` [Compound 138, 4-{4-[4-(2-methane-sulfonyl-ethoxymethyl)-indol-1-yl]-pyrimidin-2-ylamino}-cyclohexanol], with 119.5 to 121 °C; and `CC(=O)N[C@H]1CC[C@H](Nc2nccc(-n3ccc4c(COCCS(C)(=O)=O)cccc43)n2)CC1` [Compound 139, N-(4-{4-[4-(2-methane-sulfonyl-ethoxymethyl)-indol-1-yl]-pyrimidin-2-ylamino}-cyclohexyl)-acetamide], with 208.5 to 209.7 °C. Then `COCCOCc1cccc2c1ccn2-c1ccnc(N[C@H]2CC[C@H](NC(C)=O)CC2)n1` [Compound 140, N-(4-{4-[4-(2-methoxy-ethoxymethyl)-indol-1-yl]-pyrimidin-2-ylamino}-cyclohexyl)-acetamide], with 177 to 177.8 °C. Under `CS(=O)(=O)N[C@H]1CC[C@H](Nc2nccc(-n3ncc4c(OCCO)cccc43)n2)CC1` [Compound 141, N-(4-{4-[4-(2-hydroxy-ethoxy)-indazol-1-yl]-pyrimidin-2-ylamino}-cyclohexyl)-methane-sulfonamide] stands 268.1 to 269.1 °C; under `CCCOc1cccc2c1cnn2-c1ccnc(N[C@H]2CC[C@H](NS(C)(=O)=O)CC2)n1` [Compound 142, N-{4-[4-(4-propoxy-indazol-1-yl)-pyrimidin-2-ylamino]-cyclohexyl}-methanesulfonamide], 253 to 254 °C; under `O=C([C@H]1CC[C@H](Nc2nccc(-n3ncc4c(OCCCO)cccc43)n2)CC1)N1CCCC1` [Compound 144, (4-{4-[4-(3-hydroxy-propoxy)-indazol-1-yl]-pyrimidin-2-ylamino}-cyclohexyl)-pyrrolidin-1-ylmethanone], 187.5 to 188.5 °C.

In turn, `CN(C)S(=O)(=O)N[C@H]1CC[C@H](Nc2nccc(-n3ncc4c(OCCCO)cccc43)n2)CC1` [Compound 145, N-(N′,N′-dimethylsulfonamido) N-(4-{4-[4-(3-hydroxy-propoxy)-indazol-1-yl]-pyrimidin-2-ylamino}-cyclohexyl) amine] had a melting point of 248 to 250 °C. In turn, `CN(C)C(=O)[C@H]1CC[C@H](Nc2nccc(-n3ncc4c(OCc5ccccn5)cccc43)n2)CC1` [Compound 150, 4-{4-[4-(pyridine-2-yl-methoxy)-indazol-1-yl]-pyrimidin-2-ylamino}-cyclohexanecarboxylic acid dimethylamide] had a melting point of 217.3 to 219 °C.

For the compound `O=C([C@H]1CC[C@H](Nc2nccc(-n3ncc4c(OCCO)cccc43)n2)CC1)N1CCCC1` [Compound 151, (4-{4-[4-(2-hydroxy-ethoxy)-indazol-1-yl]-pyrimidin-2-ylamino}-cyclohexyl)-pyrrolidin-1-ylmethanone], the melting point is 164 to 166 °C. Then `CC(=O)N[C@H]1CC[C@H](Nc2nccc(-n3ncc4c(OCCCO)cccc43)n2)CC1` [Compound 152, N-(4-{4-[4-(3-hydroxy-propoxy)-indazol-1-yl]-pyrimidin-2ylamino}-cyclohexyl)-acetamide], with 226 to 228 °C.

`CS(=O)(=O)CCCOc1cccc2c1cnn2-c1ccnc(N[C@H]2CC[C@H](C(=O)N3CCCC3)CC2)n1` [Compound 155, (4-{4-[4-(3-methane-sulfonyl-propoxy)-indazol-1-yl]-pyrimidin-2-ylamino}-cyclohexyl)-pyrrolidin-1-ylmethanone] came in with a melting point of 183.4 to 184.5 °C. Under `CS(=O)(=O)CCCOc1cccc2c1cnn2-c1ccnc(N[C@H]2CC[C@H](NS(C)(=O)=O)CC2)n1` [Compound 156, N-(4-{4-[4-(3-methane-sulfonyl-propoxy)-indazol-1-yl]-pyrimidin-2-ylamino}-cyclohexyl)-methanesulfonamide] stands 247 to 248 °C; under `CN([C@H]1CC[C@H](Nc2nccc(-n3ncc4c(OCCCS(C)(=O)=O)cccc43)n2)CC1)S(C)(=O)=O` [Compound 158, N-(4-{4-[4-(3-methane-sulfonyl-propoxy)-indazol-1-yl]-pyrimidin-2-ylamino}-cyclohexyl)-N-methyl-methane-sulfonamide], 208.8 to 209.6 °C. Under `COCCOCc1cccc2c1ccn2-c1ccnc(N[C@H]2CC[C@H](N(C)S(C)(=O)=O)CC2)n1` [Compound 160, N-(4-{4-[4-(2-methoxy-ethoxymethyl)-indol-1-yl]-pyrimidin-2-ylamino}-cyclohexyl)-N-methyl-methane-sulfonamide] stands 154 to 156.5 °C; under `CN([C@H]1CC[C@H](Nc2nccc(-n3ccc4c(C(C)(C)O)cccc43)n2)CC1)S(C)(=O)=O` [Compound 161, N-(4-{4-[4-(1-hydroxy-1-methyl-ethyl)-indol-1-yl]-pyrimidin-2-yl-amino}-cyclohexyl)-N-methyl-methane-sulfonamide], 149 to 150 °C. Under `CN([C@H]1CC[C@H](Nc2nccc(-n3ccc4c(CC#N)cccc43)n2)CC1)S(C)(=O)=O` [Compound 163, N-{4-[4-(4-cyano-methyl-indol-1-yl)-pyrimidin-2-ylamino]-cyclohexyl}-N-methyl-methanesulfonamide] stands 187.8 to 189 °C. With `CN(c1cccc2c1ccn2-c1ccnc(N[C@H]2CC[C@H](C(C)(C)O)CC2)n1)S(C)(=O)=O` [Compound 164, N-(1-{2-[4-(1-hydroxy-1-methyl-ethyl)-cyclo-hexylamino]-pyrimidin-4-yl}-1H-indol-4-yl)-N-methyl-methanesulfonamide], the melting point was 216.5 to 217.5 °C. Under `CC(C)Oc1cccc2c1cnn2-c1ccnc(N[C@H]2CC[C@H](O)CC2)n1` [Compound 167, 4-[4-(4-isopropoxy-indazol-1-yl)-pyrimidin-2-ylamino]-cyclohexanol] stands 188.2 to 189.2 °C; under `CCCCOc1cccc2c1cnn2-c1ccnc(N[C@H]2CC[C@H](O)CC2)n1` [Compound 168, 4-[4-(4-butoxy-indazol-1-yl)-pyrimidin-2-yl-amino]-cyclohexanol], 195 to 196 °C; under `CC(C)COc1cccc2c1cnn2-c1ccnc(N[C@H]2CC[C@H](O)CC2)n1` [Compound 169, 4-[4-(4-isobutoxy-indazol-1-yl)-pyrimidin-2-ylamino]-cyclohexanol], 189.3 to 190.3 °C.

With `COC(=O)N[C@H]1CC[C@H](Nc2nccc(-n3ncc4c(OCCCS(C)(=O)=O)cccc43)n2)CC1` [Compound 170, (4-{4-[4-(3-methane-sulfonyl-propoxy)-indazol-1-yl]-pyrimidin-2-ylamino}-cyclohexyl)-carbamic acid methyl ester], the melting point was in the range of 226.8 to 227.3 °C. Then `CN([C@H]1CC[C@H](Nc2nccc(-n3ccc4c(C(C)(C)C#N)cccc43)n2)CC1)S(C)(=O)=O` [Compound 173, N-(4-{4-[4-(2-cyano-prop-2-yl)-indol-1-yl]-pyrimidin-2-ylamino}-cyclohexyl)-N-methyl-methanesulfonamide], with 189 to 190 °C; and `CC(C#N)c1cccc2c1ccn2-c1ccnc(N[C@H]2CC[C@H](N(C)S(C)(=O)=O)CC2)n1` (some centres unmarked) [Compound 174, N-(4-{4-[4-(1-cyano-ethyl)-indol-1-yl]-pyrimidin-2-ylamino}-cyclohexyl)-N-methyl-methanesulfonamide], with 196 to 197 °C; and `CC(=O)N[C@H]1CC[C@H](Nc2nccc(-n3ccc4c(C(C)C#N)cccc43)n2)CC1` (some centres unmarked) [Compound 175, N-(4-{4-[4-(1-cyano-ethyl)-indol-1-yl]-pyrimidin-2-ylamino}-cyclohexyl)-acetamide], with 244 to 245 °C. Then `CC(=O)N[C@H]1CC[C@H](Nc2nccc(-n3ccc4c(C(C)(C)C#N)cccc43)n2)CC1` [Compound 176, N-(4-{4-[4-(2-cyano-prop-2-yl)-indol-1-yl]-pyrimidin-2-ylamino}-cyclohexyl)-acetamide], with 238 to 239 °C; and `CN([C@H]1CC[C@H](Nc2nccc(-n3ncc4c(OCCCO)cccc43)n2)CC1)S(C)(=O)=O` [Compound 178, N-(4-{4-[4-(3-hydroxy-propoxy)indazole-1-yl]-pyrmidin-2-ylamino}-cyclohexyl)-N-methyl-methanesulfonamide], with 208.4 to 209 °C. Under `CC(C)(O)c1cccc2c1ccn2-c1ccnc(N[C@H]2CC[C@H](N3CCCS3(=O)=O)CC2)n1` [Compound 179, 2-(1-{2-[4-(1,1-dioxo-isothiazolidin-2yl)-cyclohexylamino}-pyrimidin-4-yl}-1H-indol-4-yl)-propan-2-ol] stands 206.9 to 207.6 °C; under `CC(C)(C)OC(=O)N[C@H]1CC[C@H](Nc2nccc(-n3ccc4c(OCCCS(C)(=O)=O)cccc43)n2)CC1` [Compound 181, (4-{4-[4-(3-methane-sulfonyl-propoxy)-indol-1-yl]-pyrimidin-2-ylamino}-cyclohexyl)-carbamic acid t-butyl ester], 227.5 to 228.5 °C.

Usually melting point stands for the temperature of the solid-liquid transition.
